Experimental data: patent publication US11857529B2, “Methods for treating melanoma” (Olatec Therageutics, Inc., priority 2018, dated 2024)

Columns and labels:
[1] = tested on: IL-22; experiment: Intracellular cytokine staining for IL-22 in spleen-derived T cells of tumor-bearing mice; format: in vivo; conditions: OLT1177 diet vs standard diet, FIG. 1D
Protocol: (§1) C57BL/6J male mice, 6-8 weeks old (The Jackson Laboratory), were fed ad libitum with either a standard diet or a diet containing OLT1177® (dapansutrile) at a dose of 7.5 g per Kg of food for one week before subcutaneous instillation of a mixture of Matrigel and B16F10 cells (2×10^5) on the hind quarter of the mice. The dosage was approximately […] based on feed concentrations of 7.5 g/kg and food consumption of 4 g/day. These diets were continued after tumor implantation. Mice were sacrificed following 15 days from the plug instillation. Tissue and plasma were assessed after 15-day post-inoculation.

[2] = tested on: HUVEC; experiment: Angiogenesis assay (HUVEC) with melanoma conditioned media from 1205Lu cells; format: cell-based, human; conditions: MCM from 1205Lu cells treated with OLT1177 vs MCM, 5 hours on Matrigel; FIG. 2C
Protocol: Cell culture. 1205Lu human melanoma cells were cultured in RPMI. Each was supplemented with 10% FBS, 100 units/mL penicillin, 0.1 mg/ml streptomycin. Cells were maintained in a humidified 5% CO2 atmosphere at 37 C. Human metastatic melanoma cell line 1205Lu were plated in RPMI at 2.5×10^5 per well in a 24-wells plate and allowed to adhere overnight. The following day, media was replaced with fresh RPMI 10% FBS with or without OLT1177® (dapansutrile). For the induction of cytokine production IL-1α (20 ng/ml) was used. OLT1177® was added 30 minutes prior to stimulation. Supernatants were collected, in both unstimulated and stimulated conditions at 24 hours.
Angiogenesis assay (HUVEC). HUVEC cells were seeded on media with no growth factors overnight. Cells were plated onto Matrigel (Corning) coated wells at 8×10^4 cells per well in a 24 well plate. Cells were then incubated for 5 hours in the presence of HUVEC complete media (control), MCM or MCM in which 1205Lu cells were treated with OLT1177®. MCM was added without dilution. Media was then removed and matrigel was preserved in PFA4%. Pictures were taking at 40× and branching points were counted using the cross method.
The effects of dapansutrile on angiogenesis was determined in vitro using human umbilical vein endothelial cells (HUVEC). […]

[3] = tested on: B16F10 cells; experiment: B16F10 melanoma Matrigel plug tumor growth in mice fed standard or OLT1177 diet; format: in vivo; conditions: OLT1177 diet 7.5 g/kg food (approx. 100 mg/kg/day) vs standard diet, 15 days after plug instillation; FIG. 1A
Protocol: as §1

[4] = tested on: B16F10-GFP cells; experiment: Metastasis model: i.v. B16F10-GFP cells, GFP+ cell counts in lung and liver; format: in vivo, mice; conditions: 21 days after i.v. B16F10-GFP, OLT1177 diet vs standard diet
Protocol: Metastasis Model. Metastasis formation was determined following tail intravenous (i.v.) injection of B16F10-GFP (1×10^6) cells in mice fed standard or OLT1177® diet. Before injection, the B16F10-GFP+ cells were sorted by flow cytometry and only the top brightest 10% cells were injected. Mice were sacrificed after 21 days from the cell injection and lung and liver were isolated and prepared for histology. Previous isolation, lungs were inflated with a solution containing 0.5% low melting agarose to avoid the tissue from collapsing. The presence of GFP-positive cell in the lung and liver of tumor bearing mice were performed by fluorescent microscopy. Tissue sections were stained with Alexa Fluor conjugated WGA, for membranes detection and DAPI, for nuclear stain. Images were acquired blindly and randomly across the tissue sections to obtain 7-10 images per tissue section. GFP positive cells were counted in each image and the results reported as number of GFP+ cells/field area (full chip field).
To determine whether dapansutrile reduces tissue invasion and metastasis, B16F10-GFP labeled cells were injected intravenously in mice fed with standard or OLT1177® diets.

[5] = tested on: G-CSF; experiment: Plasma G-CSF in B16F10 tumor-bearing mice; format: in vivo; conditions: OLT1177 diet vs standard diet, day 15, FIG. 1C
Protocol: (§2) Cytokine measurements. Cytokines in supernatants and cell lysates were measured by specific ELISA according to the manufacturer's instructions (DuoSet, R&D Systems, Minneapolis, MN).
as §1

[6] = tested on: M-MDSC (CD11b+Ly6G−Ly6Chi); experiment: Flow cytometry of M-MDSC in tumor-bearing mice; format: in vivo; conditions: tumor-bearing mice on dapansutrile diet, relative to non-tumor-bearing mice
From the text: (§3) Flow cytometry analysis was used to assess the effect of NLRP3 inhibition on the activation and expansion of MDSCs, key mediators of tumor-associated immunosuppression. Bone marrow, spleen, and lymph node-derived cells were isolated and analyzed for the two main MDSCs subtypes: polymorphonuclear MDSCs (PMN-MDSC) expressing CD11b^+Ly6G^+Ly6C^lo and monocytic MDSCs (M-MDSC) expressing CD11b^+Ly6G^−Ly6C^hi. […] In the spleen, the level of PMN-MDSCs in tumor-bearing mice was increased compared to non-tumor-bearing mice (FIG. 4B). However, in mice fed the dapansutrile diet, we observed a restoration of the PMN-MDSC population at the level observed in the non-tumor-bearing mice (FIGS. 4A-4B). […] Treatment with dapansutrile prevented the tumor-induced effect on M-MDSCs expansion, normalizing the population to the non-tumor-bearing mice level (FIGS. 4D-4F).

[7] = tested on: IL-6; experiment: Plasma IL-6 in B16F10 tumor-bearing mice; format: in vivo; conditions: OLT1177 diet vs standard diet, day 15, FIG. 1B
Protocol: as §2, §1

[8] = tested on: VEGF; experiment: Plasma VEGF in tumor-bearing mice (tumor angiogenesis model); format: in vivo; conditions: 7 days after plug, OLT1177 diet vs standard diet, FIG. 2A
Protocol: (§4) Tumor Angiogenesis Model. A mixture of Matrigel and B16F10 (2×10^5) was inoculated s.c. in the interscapular area of mice fed standard or OLT1177® diet. Following 7 days from the implantation, the plugs were removed, fixed in 4% paraformaldehyde, embedded in paraffin and sectioned (4 μm). Following, the sections were de-paraffinized, hydrated and stained with hematoxylin/eosin. Separate sections were subjected to heat-induced antigen retrieval (10 mM Citrate 0.05% Tween 20-pH 6.0) at 95° C. for 15 min. The sections were then placed in a humidified slide chamber, blocked for 1 h in 10% normal donkey serum (Jackson Immunologicals) and immunostained using an antibody for Von Willebrand factor (1:100, Millipore-Sigma, Burlington, MA) overnight at 4° C. for identification of new vessel formation. Anti-rabbit horseradish peroxidase enzyme (HRP) conjugated antibody (1:100, Jackson ImmunoResearch Laboratories, West Grove, PA) were used as secondary antibody for 2 hours at room temperature. […]
We next determined the ability of dapansutrile on inhibition of angiogenesis, an acquired ability of tumor cells to sustain a blood supply to nourish the growing tumor mass. […] After seven days to allow endothelial cell infiltration, plugs were removed, and plasma VEGF levels were determined.

[9] = healthy subjects, reference 9; cited from earlier work
[10] = tested on: Von Willebrand Factor stained endothelial cells; experiment: Tumor angiogenesis model: Von Willebrand Factor staining of B16F10 Matrigel plugs; format: in vivo, mice; conditions: 7 days after implantation, OLT1177 diet vs standard diet; FIG. 2B
Protocol: as §4, with “temperature. Sections were then incubated for 5-10 min with HRP substrate as directed by the manufacturer's instructions (NovaRED substrate, Vector Laboratories, Burlingame, CA). Nuclei counterstaining were achieved using Mayer's Hematoxylin counterstaining (Thermo Fisher scientific Waltham, MA).” for “temperature.”

[11] = target: NLRP3 inflammasome (Homo sapiens, UniProt Q96P20); conditions: reference 9; cited from earlier work
[12] = tested on: IL-17; experiment: Intracellular cytokine staining for IL-17 in spleen-derived T cells of tumor-bearing mice; format: in vivo; conditions: OLT1177 diet vs standard diet, FIG. 1E
Protocol: as §1

[13] = tested on: PMN-MDSC (CD11b+Ly6G+Ly6Clo); experiment: Flow cytometry of PMN-MDSC in tumor-bearing mice; format: in vivo
From the text: as §3

NLRP3 inflammasome, sequence (Q96P20 whole entry): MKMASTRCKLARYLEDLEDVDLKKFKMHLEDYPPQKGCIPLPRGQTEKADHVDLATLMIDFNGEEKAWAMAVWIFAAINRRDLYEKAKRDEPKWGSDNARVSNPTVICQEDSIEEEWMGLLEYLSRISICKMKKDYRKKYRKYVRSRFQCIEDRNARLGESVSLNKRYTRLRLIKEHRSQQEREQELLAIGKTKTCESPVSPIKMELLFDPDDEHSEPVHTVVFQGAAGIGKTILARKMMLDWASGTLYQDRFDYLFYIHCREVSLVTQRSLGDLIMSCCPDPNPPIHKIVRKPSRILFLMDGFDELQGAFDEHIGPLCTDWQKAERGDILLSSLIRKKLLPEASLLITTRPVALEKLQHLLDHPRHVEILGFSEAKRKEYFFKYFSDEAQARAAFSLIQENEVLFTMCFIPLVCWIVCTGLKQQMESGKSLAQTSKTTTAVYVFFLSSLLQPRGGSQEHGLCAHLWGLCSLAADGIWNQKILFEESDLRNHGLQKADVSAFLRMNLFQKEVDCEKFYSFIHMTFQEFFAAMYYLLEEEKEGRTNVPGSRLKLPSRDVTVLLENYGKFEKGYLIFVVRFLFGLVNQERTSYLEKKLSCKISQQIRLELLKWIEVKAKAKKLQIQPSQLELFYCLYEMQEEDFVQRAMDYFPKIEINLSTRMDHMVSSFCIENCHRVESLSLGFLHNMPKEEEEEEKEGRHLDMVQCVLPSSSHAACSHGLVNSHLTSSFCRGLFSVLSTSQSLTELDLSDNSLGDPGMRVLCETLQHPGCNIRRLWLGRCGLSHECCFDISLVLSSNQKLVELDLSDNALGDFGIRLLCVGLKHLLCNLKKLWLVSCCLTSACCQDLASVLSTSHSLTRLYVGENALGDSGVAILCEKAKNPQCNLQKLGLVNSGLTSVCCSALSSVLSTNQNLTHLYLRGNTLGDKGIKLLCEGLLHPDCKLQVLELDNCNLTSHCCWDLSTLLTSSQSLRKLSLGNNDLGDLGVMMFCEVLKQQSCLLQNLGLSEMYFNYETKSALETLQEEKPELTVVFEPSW

CS(=O)(=O)CCC#N [OLT1177®, 3-methanesulfonyl-propionitrile]
IL-22 levels (ICCS, spleen-derived T cells) [1]: reduced | HUVEC orientation (number of branching points / tubular-like structures) [2]: significantly reduced | tumor volume [3]: reduced | reduction of number of GFP+ cells in the lungs ([4]; p<0.0001, FIG. 3A): 66% | change in number of GFP+ cells in the liver ([4]; p<0.001, FIG. 3B): −60% | plasma levels of G-CSF [5]: significantly reduced | M-MDSC population in bone marrow ([6]; FIG. 4D): normalizing | M-MDSC population in spleen ([6]; FIG. 4E): normalizing | M-MDSC population in lymph nodes ([6]; FIG. 4F): normalizing | plasma levels of IL-6 [7]: significantly reduced | circulating VEGF levels [8]: significantly lower | safety when orally administered [9]: safe | VWF stained endothelial cells in matrigel plugs (new vessel formation) [10]: reduced | inhibition of the NLRP3 inflammasome [11]: selectively inhibit | IL-17 (ICCS, spleen-derived T cells) [12]: No changes | PMN-MDSCs in lymph nodes ([13]; dapansutrile diet vs standard diet, FIG. 4C): reduction | PMN-MDSC population in bone marrow ([13]; tumor-bearing mice on dapansutrile diet, relative to non-tumor-bearing mice, FIG. 4A): restoration | PMN-MDSC population in spleen ([13]; tumor-bearing mice on dapansutrile diet, relative to non-tumor-bearing mice, FIG. 4B): restoration
